From EP2471802A1, “Phosphoramidates of monosaccharides” (Bioiberica, S.A., priority 2010, dated 2012) come the findings set out here.

The inhibition is the percentage by which the read-out fell short of the control.

For experiment [1], the system named is bovine cartilage explants. The experiment is described as follows: GAG release inhibition (IL-1 induced) in bovine cartilage explants, Blyscan colorimetric assay. As to conditions: for reduction in the GAG release induced by IL-1 (result in words): bovine explants, compared to culture stimulated with IL-1 in the presence of 0.25% DMSO. It counts as cell-based. The protocol:
(§1) Glycosaminoglycan (GAG) release is a test used to evaluate the effects of the compounds of the present invention on proteoglycan degradation induced by IL-1.
(§2) Full-depth articular cartilage were dissected from the metacarpophalangeal joints of calves of approximately 6 months of age or human cartilage from joint replacement surgery (approximately 4 mm diameter punches for bovine cartilage and 2 mm for human cartilage). After an equilibration period of 24 hours, explants were cultured for one day in 200 µl DMEM + hydrolyzed lactalbumin + 50 µg/ml vitamin C + penicillin/streptomycin + ITS (Insulin-Transferrin-Selenium) in the presence or absence of the compounds. After one day, GAG release was induced by addition of 10 ng of IL-1. Six days after IL-1 induction, the cartilage and culture medium were collected for analysis. During this six day period the culture medium was replaced every two days.
(§3) GAG release was analyzed using the Blyscan® colorimetric assay (Biocolor, Belfast, UK). To measure GAG content of the cartilage explants, the tissue was digested with papain. The culture medium of day 4, 6 and 8 was pooled before GAG analysis. GAG release was expressed as percentage of the total GAG content of the explants (i.e. GAG medium + GAG in papain digest).
(§4) A control condition with 0.25% DMSO was included because the test compounds were dissolved in DMSO. A condition with glucosamine hydrochloride was added for comparison.
(§5) Each culture condition was performed with cartilage of five different paws/patients to account for biological variation.
(§6) ANOVA followed by LSD post-hoc tests were used for determining differences between groups (p≤ 0.05 was considered significant).
(§7) Results in Tables 3 and 4 were expressed as a percentage reduction in GAG release compared to the control condition with DMSO stimulated with IL-1.

Another experiment relates to human cartilage explants. Kind of experiment: GAG release inhibition (IL-1 induced) in human cartilage explants, Blyscan colorimetric assay. It counts as cell-based. As to conditions: for reduction of GAG release (result in words): doses 50 µM, 100 µM and 250 µM. How it is done: as §1, §2, §3, §4, §5, §6, §7
The mark [2] stands for this setting: Bos taurus, bovine cartilage explants, percentage reduction in GAG release vs 0.25% DMSO + IL-1 control, * p≤ 0.05, (Inactive) = not statistically significant.

As to `COc1ccc(OP(=O)(NC(C(=O)OCc2ccccc2)C(C)C)OC[C@H]2OC(O)[C@H](NC(C)=O)[C@@H](O)[C@@H]2O)cc1` (some centres unmarked) [Reference compound 4, reference compound], the inhibition at 100 µM in experiment [1] (setting [2]) came out at 3%.
In the case of `CCOC(=O)[C@@H]1CCCN1P(=O)(Oc1ccc(OC)cc1)O[C@H]1[C@H](O)[C@@H](CO)OC(O)[C@@H]1NC(C)=O` (some centres unmarked) [Compound 31], in experiment [1], the “reduction in the GAG release induced by IL-1 (result in words)” value (“reduction in the GAG release induced” for short) is “statistically significant reduction of the GAG release”.
For the molecule `COc1ccc(OP(=O)(NC(C(=O)OCc2ccccc2)C(C)C)OC[C@H]2OC(O)[C@H](N)[C@@H](O)[C@@H]2O)cc1` (some centres unmarked) [Reference compound 5, reference compound], in experiment [1] (setting [2]), the inhibition at 100 µM is 4%.
For `COc1ccc(OP(=O)(N[C@H](C(=O)OCc2ccccc2)C(C)C)O[C@H]2[C@H](O)[C@@H](CO)OC(O)[C@@H]2NC(C)=O)cc1` (stereo partly drawn) [Compound 16, 2-acetamido-2-deoxy-3-O-[4-methoxyphenyl(benzyloxy-L-valinyl)]phosphoramidate-D-glucopyranose], the inhibition at 100 µM in experiment [1] (setting [2]) came out at 27%. The “reduction in the GAG release induced” value in experiment [1] is “statistically significant reduction of the GAG release”.
Turning to `CCOC(=O)[C@@H]1CCCN1P(=O)(Oc1cccc2ccccc12)O[C@H]1[C@H](O)[C@@H](CO)OC(O)[C@@H]1NC(C)=O` (stereo partly drawn) [Compound 80, 2-acetamido-2-deoxy-3-O-[1-naphtyl(ethoxy-L-prolinyl)]phosphoramidate-D-glucopyranose], the “reduction in the GAG release induced” value in experiment [1] was “statistically significant reduction of the GAG release”.
Same read-out and setting: then `CC(=O)N[C@H]1C(O)O[C@H](CO)[C@@H](O)[C@@H]1OP(=O)(Oc1ccccc1)N1CCC[C@H]1C(=O)OCc1ccccc1` (stereo partly drawn) [Compound 74, 2-acetamido-2-deoxy-3-O-[phenyl(benzyloxy-L-prolinyl)]phosphoramidate-D-glucopyranose], with “statistically significant reduction of the GAG release”.
For the molecule “2-deoxy-2-(pent-4-enoylamino)-3-O-[4-methoxyphenyl(ethoxy-L-prolinyl)]phosphoramidate-D-glucopyranose [Compound 87]”, in experiment [1] (250 µM, bovine cartilage explants, percentage reduction in GAG release vs 0.25% DMSO + IL-1 control, * p≤ 0.05, (Inactive) = not statistically significant), the GAG release inhibition was 33.3%*. Also, in experiment [1], the “reduction in the GAG release induced” value was “statistically significant reduction of the GAG release”.
For the molecule `Cl.N[C@H]1C(O)O[C@H](CO)[C@@H](O)[C@@H]1O` (some centres unmarked) [Glucosamine Hydrochloride], the inhibition at 100 µM in experiment [1] (setting [2]) was determined as 0%; with human cartilage explants (100 µM, percentage reduction in GAG release vs 0.25% DMSO + IL-1 control, * p≤ 0.05, (Inactive) = not statistically significant), 11.9%. The inhibition at 250 µM is 0% in experiment [1] (Bos taurus, 250 µM, bovine cartilage explants, percentage reduction in GAG release vs 0.25% DMSO + IL-1 control, * p≤ 0.05, (Inactive) = not statistically significant) and 11.9% in the experiment on human cartilage explants (250 µM, percentage reduction in GAG release vs 0.25% DMSO + IL-1 control, * p≤ 0.05, (Inactive) = not statistically significant). For the same molecule, the “reduction in the GAG release induced” value in experiment [1] was “did not caused any statistically significant reduction”. In the experiment on human cartilage explants (50 µM, percentage reduction in GAG release vs 0.25% DMSO + IL-1 control, * p≤ 0.05, (Inactive) = not statistically significant), the inhibition at 50 µM was 7.8%. In addition, the “reduction of GAG release (result in words)” value in the experiment on human cartilage explants was “inactive”.
`COc1ccc(OP(=O)(N[C@H](C(=O)OCc2ccccc2)C(C)C)O[C@H]2[C@H](O)[C@@H](CO)OC(O)[C@@H]2N)cc1` (stereo partly drawn) [Compound 63, 2-amino-2-deoxy-3-O-[4-methoxyphenyl(benzyloxy-L-valinyl)]phosphoramidate-D-glucopyranose]: the inhibition at 100 µM in experiment [1] (setting [2]) was found to be 31%. In experiment [1], the “reduction in the GAG release induced” value is listed as “statistically significant reduction of the GAG release”.
On to `CCC(C)OC(=O)[C@@H](NP(=O)(Oc1ccc(OC)cc1)O[C@H]1[C@H](O)[C@@H](CO)OC(O)[C@@H]1NC(C)=O)C(C)C` (stereo partly drawn) [Compound 58, 2-acetamido-2-deoxy-3-O-[4-methoxyphenyl(2-butoxy-L-valinyl)]phosphoramidate-D-glucopyranose], for which the inhibition at 100 µM in experiment [1] (setting [2]) was 41%. In addition, in experiment [1], the “reduction in the GAG release induced” value is given as “statistically significant reduction of the GAG release”.
Consider `CCOC(=O)[C@@H]1CCCN1P(=O)(Oc1ccc(OC)cc1)O[C@H]1[C@H](O)[C@@H](NC(C)=O)C(O)O[C@@H]1CO` (stereo partly drawn) [Compound 32, 2-acetamido-2-deoxy-4-O-[4-methoxyphenyl(ethoxy-L-prolinyl)]phosphoramidate-D-glucopyranose], for which, in experiment [1], the “reduction in the GAG release induced” value is reported as “statistically significant reduction of the GAG release”.
For `C=CCCC(=O)N[C@H]1C(O)O[C@H](CO)[C@@H](O)[C@@H]1OP(=O)(N[C@H](C(=O)OCc1ccccc1)C(C)C)Oc1ccc(OC)cc1` (stereo partly drawn) [Compound 61, 2-deoxy-2-(pent-4-enoylamino)-3-O-[4-methoxyphenyl(benzyloxy-L-valinyl)]phosphoramidate-D-glucopyranose], the inhibition at 100 µM in experiment [1] (setting [2]) was 47%. In addition, in experiment [1], the “reduction in the GAG release induced” value is “statistically significant reduction of the GAG release”.
Take `COc1ccc(OP(=O)(O[C@H]2[C@H](O)[C@@H](CO)OC(O)[C@@H]2NC(C)=O)N2CCC[C@H]2C(=O)OCc2ccccc2)cc1` (stereo partly drawn) [Compound 1, 2-acetamido-2-deoxy-3-O-[4-methoxyphenyl(benzyloxy-L-prolinyl)]phosphoramidate-D-glucopyranose]: the “reduction in the GAG release induced” value in experiment [1] is listed as “statistically significant reduction of the GAG release”. The “reduction of GAG release (result in words)” value in the experiment with human cartilage explants is reported as “statistically significant activity”.
Regarding `CCCCCOC(=O)[C@@H]1CCCN1P(=O)(Oc1ccc(OC)cc1)O[C@H]1[C@H](O)[C@@H](NC(C)=O)C(O)O[C@@H]1CO` (stereo partly drawn) [Compound 69, 2-acetamido-2-deoxy-4-0-[4-methoxyphenyl(n-pentoxy-L-prolinyl)]phosphoramidate-D-glucopyranose], the “reduction in the GAG release induced” value in experiment [1] was “statistically significant reduction of the GAG release”.
